Consider one substance from patent US11235976B2, “Nanocarbon-iron composite system as well as composition, preparation method and use thereof” (Chongqing Lummy Pharmaceutical Co., LTD, priority 2017, dated 2022).

For experiment [1], the system named is subcutaneous transplantation tumors of 9 types of cancer cells. As to the kind of experiment: Tumor growth inhibition experiments, subcutaneous transplantation tumors. Type of experiment: in vivo, mice. Conditions: FIGS. 4-39. How it is done:
Cells growing in a log phase are collected, the concentration of the cell suspension is adjusted to 3×10^7 cells/mL, and the cell suspension is inoculated subcutaneously into the right upper extremities of nude mice at the inoculation dosage of 0.1 mL (about 3×10^6 cells) per mouse. When the average tumor volume of the inoculated mice reaches 100 mm^3, the tumor-bearing mice are randomly divided into the following groups (8 nude mice per group): a negative control group (0.9% sodium chloride injection), a nanocarbon control group, an iron preparation control group, a nanocarbon-iron suspension experimental group, and a cis-platinum control group (intraperitoneal injection at the dosage of 5 mg/kg). The above various drugs are injected into the tumors. The tumor volume changes are recorded, and the formula for calculating the volume is Volume=(length×the square of width)/2.
Milky white and thick ascites is extracted from the H22 tumor-bearing mice, the concentration of the cell suspension is adjusted to be 3×10^7 cells/mL, 0.1 mL of cell suspension (about 3×10^6 cells) is inoculated subcutaneously into the right upper extremity of each of Kunming mice. When the average tumor volume of the inoculated mice reaches 100 mm^3, the tumor-bearing mice are randomly divided into the following groups (8 mice per group): a negative control group (0.9% sodium chloride injection), a nanocarbon control group, an iron preparation control group, a nanocarbon-iron suspension experimental group, and a cis-platinum control group (intraperitoneal injection at the dosage of 5 mg/kg). The above various drugs are injected into the tumors. The tumor volume changes are recorded, and the formula for calculating the volume is Volume=(length×the square of width)/2.

Experiment [2] deals with H22 metastatic lymph nodes. As to the kind of experiment: Lymph node metastasis inhibition experiment. Type of experiment: in vivo, Kunming mouse. Conditions: popliteal lymph nodes. How it is done:
(§1) Milky white and thick ascites is extracted from the H22 tumor-bearing mice, the concentration is adjusted to be 3×10^7 cells/mL, 0.05 mL of cell suspension (about 1.5×10^6 cells) is inoculated subcutaneously into the left hind foot pads of each Kunming mouse, and thus a lymph node metastasis mouse model is obtained. The mice are treated when the diameter of the tumor reaches 6-8 mm and there is no ulcer and necrosis. The mice are randomly divided into four groups (10 mice per group): a negative control group (0.9% sodium chloride injection), a nanocarbon control group, an iron preparation control group and a nanocarbon-iron suspension experimental group. 10 days after inoculation, the mice are killed, and popliteal lymph nodes are collected, weighed and fixed for pathological examination.

The test system of experiment [3] is TPC-1 metastatic lymph nodes. Kind of experiment: Lymph node metastasis inhibition experiment. Type of experiment: in vivo, nude mouse. Conditions: popliteal lymph nodes. The method, then:
as §1, with “Cells growing in a log phase are collected,” for “Milky white and thick ascites is extracted from the H22 tumor-bearing mice,”, “concentration of the cell suspension” for “concentration”, “to” for “to be”, “the” for “0.05 mL of”, “suspension” for “suspension (about 1.5×10^6 cells)”, “nude mouse at the inoculation volume of 0.05 mL (about 1.5×10^6 cells)” for “Kunming mouse,”

In experiment [4] the test system is Hela metastatic lymph nodes. As to the kind of experiment: Lymph node metastasis inhibition experiment. Type of experiment: in vivo, nude mouse. Conditions: popliteal lymph nodes. How it is done: as §1, with “Cells growing in a log phase are collected,” for “Milky white and thick ascites is extracted from the H22 tumor-bearing mice,”, “concentration of the cell suspension” for “concentration”, “to” for “to be”, “the” for “0.05 mL of”, “suspension” for “suspension (about 1.5×10^6 cells)”, “nude mouse at the inoculation volume of 0.05 mL (about 1.5×10^6 cells)” for “Kunming mouse,”

The test system of experiment [5] is MDA-MB-231 metastatic lymph nodes. As to the kind of experiment: Lymph node metastasis inhibition experiment. Type of experiment: in vivo, nude mouse. Conditions: popliteal lymph nodes. How it is done: as §1, with “Cells growing in a log phase are collected,” for “Milky white and thick ascites is extracted from the H22 tumor-bearing mice,”, “concentration of the cell suspension” for “concentration”, “to” for “to be”, “the” for “0.05 mL of”, “suspension” for “suspension (about 1.5×10^6 cells)”, “nude mouse at the inoculation volume of 0.05 mL (about 1.5×10^6 cells)” for “Kunming mouse,”

The test system of experiment [6] is A549 metastatic lymph nodes. Kind of experiment: Lymph node metastasis inhibition experiment. Type of experiment: in vivo, nude mouse. Conditions: popliteal lymph nodes. How it is done:
as §1, with “Cells growing in a log phase are collected,” for “Milky white and thick ascites is extracted from the H22 tumor-bearing mice,”, “concentration of the cell suspension” for “concentration”, “to” for “to be”, “the” for “0.05 mL of”, “suspension” for “suspension (about 1.5×10^6 cells)”, “nude mouse at the inoculation volume of 0.05 mL (about 1.5×10^6 cells)” for “Kunming mouse,”

Experiment [7] relates to SGC-7901 metastatic lymph nodes. As to the kind of experiment: Lymph node metastasis inhibition experiment. It is filed as in vivo, nude mouse. Conditions: popliteal lymph nodes. The method, then:
as §1, with “Cells growing in a log phase are collected,” for “Milky white and thick ascites is extracted from the H22 tumor-bearing mice,”, “concentration of the cell suspension” for “concentration”, “to” for “to be”, “the” for “0.05 mL of”, “suspension” for “suspension (about 1.5×10^6 cells)”, “nude mouse at the inoculation volume of 0.05 mL (about 1.5×10^6 cells)” for “Kunming mouse,”

Experiment [8] has as its system HCT116 metastatic lymph nodes. Kind of experiment: Lymph node metastasis inhibition experiment. Conditions: popliteal lymph nodes. Type of experiment: in vivo, nude mouse. How it is done:
as §1, with “Cells growing in a log phase are collected,” for “Milky white and thick ascites is extracted from the H22 tumor-bearing mice,”, “concentration of the cell suspension” for “concentration”, “to” for “to be”, “the” for “0.05 mL of”, “suspension” for “suspension (about 1.5×10^6 cells)”, “nude mouse at the inoculation volume of 0.05 mL (about 1.5×10^6 cells)” for “Kunming mouse,”

Experiment [9] relates to SKOV3 metastatic lymph nodes. Kind of experiment: Lymph node metastasis inhibition experiment. The note with it: popliteal lymph nodes. Type of experiment: in vivo, nude mouse. How it is done: as §1, with “Cells growing in a log phase are collected,” for “Milky white and thick ascites is extracted from the H22 tumor-bearing mice,”, “concentration of the cell suspension” for “concentration”, “to” for “to be”, “the” for “0.05 mL of”, “suspension” for “suspension (about 1.5×10^6 cells)”, “nude mouse at the inoculation volume of 0.05 mL (about 1.5×10^6 cells)” for “Kunming mouse,”

Experiment [10] deals with SMMC-7721 metastatic lymph nodes. As to the kind of experiment: Lymph node metastasis inhibition experiment. Type of experiment: in vivo, nude mouse. The note with it: popliteal lymph nodes. The method, then: as §1, with “Cells growing in a log phase are collected,” for “Milky white and thick ascites is extracted from the H22 tumor-bearing mice,”, “concentration of the cell suspension” for “concentration”, “to” for “to be”, “the” for “0.05 mL of”, “suspension” for “suspension (about 1.5×10^6 cells)”, “nude mouse at the inoculation volume of 0.05 mL (about 1.5×10^6 cells)” for “Kunming mouse,”

Experiment [11] has as its system lymph node metastasis of 9 types of tumor cells. As to the kind of experiment: Lymph node metastasis inhibition experiment, summary. Type of experiment: in vivo, mice. How it is done: as §1, with “Cells growing in a log phase are collected,” for “Milky white and thick ascites is extracted from the H22 tumor-bearing mice,”, “concentration of the cell suspension” for “concentration”, “to” for “to be”, “the” for “0.05 mL of”, “suspension” for “suspension (about 1.5×10^6 cells)”, “nude mouse at the inoculation volume of 0.05 mL (about 1.5×10^6 cells)” for “Kunming mouse,”
as §1

The test system of experiment [12] is murine liver cancer H22 cells. Kind of experiment: Cell experiment, cell survival rate. It is filed as cell-based. The note with it: 48 h. The method, then:
(§2) Cells growing in a log phase are collected, the concentration of the cell suspension is adjusted, 100 μL of cell suspension is added to each well and the cells are plated (edge wells are filled with sterile PBS) at a density of 1×10^3-10^4 cells/well. The cells are incubated for 24 hours at 37° C. under the condition of 5% CO2, a nanocarbon-iron solution having a concentration gradient (nanocarbon content: 125, 62.5, 15.63 and 3.91 μg/mL; and ferric ion content: 13.65, 6.83, 1.71 and 0.43 μg/mL) is added, and three sub-wells are set. Then the cells are incubated for 48 hours at 37° C. under the condition of 5% CO2. 10 μL of CCK8 solution is added to each well and then the cells are continuously incubated for 2 hours. The absorbance of each well is measured at OD=450 nm with the microplate reader. In addition, a negative control group, nanocarbon control groups having the same concentration and iron preparation control groups having the same concentration are set.
as §2, with “and 1” for “100”, “of a 6-well plate” for “and the cells are plated (edge wells are filled with sterile PBS)”, “3×10^4” for “1×10^3-10^4”, “1.71,” for “1.71 and”, “The” for “10 μL of CCK8 solution is added to each well and then the”, “trypsinized and counted.” for “continuously incubated for 2 hours. The absorbance of each well is measured at OD=450 nm with the microplate reader.”

Experiment [13] has as its system SKOV3 ovarian cancer cells. As to the kind of experiment: Cell experiment, cell survival rate. Conditions: 48 h. Type of experiment: cell-based. The method, then: as §2
as §2, with “and 1” for “100”, “of a 6-well plate” for “and the cells are plated (edge wells are filled with sterile PBS)”, “3×10^4” for “1×10^3-10^4”, “1.71,” for “1.71 and”, “The” for “10 μL of CCK8 solution is added to each well and then the”, “trypsinized and counted.” for “continuously incubated for 2 hours. The absorbance of each well is measured at OD=450 nm with the microplate reader.”

Experiment [14] relates to HCT116 colon cancer cells. As to the kind of experiment: Cell experiment, cell survival rate. It is filed as cell-based. The note with it: 48 h. The method, then: as §2
as §2, with “and 1” for “100”, “of a 6-well plate” for “and the cells are plated (edge wells are filled with sterile PBS)”, “3×10^4” for “1×10^3-10^4”, “1.71,” for “1.71 and”, “The” for “10 μL of CCK8 solution is added to each well and then the”, “trypsinized and counted.” for “continuously incubated for 2 hours. The absorbance of each well is measured at OD=450 nm with the microplate reader.”

The mark [15] stands for this setting: iron preparation alone 0.43 μg/mL.
Setting [16] is: iron preparation alone 1.71 μg/mL.
[17] abbreviates: iron preparation alone 6.83 μg/mL.
[18] abbreviates: iron preparation alone 13.65 μg/mL.

Take ferrous sulfate: the “inhibition effect on growth of 9 types of tumors” value in experiment [1] is on record as “do not have an inhibition effect”. In addition, the “Weight of Lymph Node” value came out at 44.27 ± 20.69 mg in experiment [2]; 35.71 ± 13.45 mg in experiment [3]; 29.48 ± 6.46 mg in experiment [4]; 40.18 ± 11.14 mg in experiment [5]; 44.97 ± 16.53 mg in experiment [6]; 50.12 ± 20.94 mg in [7]. For the same substance, the “Weight of Lymph Node” value in experiment [8] was 48.12 ± 10.58 mg; in experiment [9] it was 35.62 ± 6.94 mg; in experiment [10] it was 50.19 ± 18.73 mg. Also, in experiment [11], the “inhibition effect on the metastatic lymph nodes” value is “do not have an inhibition effect”. Moreover, the “Cell Survival Rate” value in experiment [12] (setting [15]) came out at 100%; in experiment [12] (setting [16]), 95.24%; in [12] (setting [17]), 97.16%; in experiment [12] (setting [18]), 100%; in experiment [13] (setting [15]) it was 97.89%; in experiment [13] (setting [16]) it was 100%. For the same substance, the “Cell Survival Rate” value came to 95.78% in experiment [13] (setting [17]); 96.47% in [13] (setting [18]); 98.32% in experiment [14] (setting [15]); 100% in experiment [14] (setting [16]); 97.68% in [14] (setting [17]); 94.07% in experiment [14] (setting [18]).
